Experimental data: PubChem BioAssay AID192 (DTP/NCI, 2004)
Toxic doses and inconclusive results are not listed. Rule for the calls: active = survival T/C of 150% or more; inactive = T/C below 125% in these data.

System: BDF1 mice, B16 melanoma ip, median survival T/C
Experiment: NCI In Vivo Anticancer Drug Screen. Data for tumor model B16 Melanoma (intraperitoneal) in B6D2F1 (BDF1) mice
Settings: endpoint: median survival time, schedule: Q01DX009 (ip), higher = longer survival
In short: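 Each result divides a survival or tumor-size measurement in the compound-treated group by the same measurement in the vehicle group.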

[1] = dose: 100.0 mg/kg/injection, vehicle: Klucel (hydroxypropylcellulose) (HPC)

Measured: T/C

COc1ccc2c(c1)N(CCCN(C)C)c1ccccc1S2
inactive: dose: 2.34 mg/kg/injection, vehicle: saline 102 % of control | dose: 4.68 mg/kg/injection, vehicle: saline 110 % of control | dose: 18.75 mg/kg/injection, vehicle: saline 102 % of control | dose: 37.5 mg/kg/injection, vehicle: saline 110 % of control

CS(=O)(=O)Nc1ccc(C(=O)O)cc1
inactive: [1] 100 % of control | dose: 200.0 mg/kg/injection, vehicle: Klucel (hydroxypropylcellulose) (HPC) 102 % of control

C=CC12COC(=O)C(=C)C1C1OC(=O)C(=C)C1C(O)C2 (stereo unspecified)
inactive: dose: 0.93 mg/kg/injection, vehicle: Klucel (hydroxypropylcellulose) (HPC) 95 % of control | dose: 1.87 mg/kg/injection, vehicle: Klucel (hydroxypropylcellulose) (HPC) 104 % of control | dose: 3.75 mg/kg/injection, vehicle: Klucel (hydroxypropylcellulose) (HPC) 101 % of control | dose: 7.5 mg/kg/injection, vehicle: Klucel (hydroxypropylcellulose) (HPC) 98 % of control

CC1CCC2(OC1)OC1CC3C4CCC5CC(O)CCC5(C)C4CCC3(C)C1C2C (stereo unspecified)
inactive: dose: 10.0 mg/kg/injection, vehicle: Klucel (hydroxypropylcellulose) (HPC) 99 % of control | dose: 20.0 mg/kg/injection, vehicle: Klucel (hydroxypropylcellulose) (HPC) 97 % of control | dose: 40.0 mg/kg/injection, vehicle: Klucel (hydroxypropylcellulose) (HPC) 95 % of control

ClC(Cl)(Cl)C(N1CCN(c2ccccc2)CC1)N1CCN(c2ccccc2)CC1
inactive: dose: 50.0 mg/kg/injection, vehicle: saline with Tween-80 113 % of control | dose: 100.0 mg/kg/injection, vehicle: saline with Tween-80 96 % of control | dose: 200.0 mg/kg/injection, vehicle: saline with Tween-80 112 % of control | dose: 400.0 mg/kg/injection, vehicle: saline with Tween-80 91 % of control

O=C(CCl)N1c2ccccc2Sc2ccc(Cl)cc21
inactive: dose: 6.25 mg/kg/injection, vehicle: other 107 % of control | dose: 12.5 mg/kg/injection, vehicle: other 100 % of control | dose: 25.0 mg/kg/injection, vehicle: other 100 % of control | dose: 50.0 mg/kg/injection, vehicle: other 94 % of control | dose: 100.0 mg/kg/injection, vehicle: other 87 % of control

COC(=O)[C@@]12OC[C@]34[C@H]([C@@H](O)[C@@H]1O)[C@@]1(C)C=C(OC5OC(CO)C(O)C(O)C5O)C(=O)C(C)[C@@H]1C[C@H]3OC(=O)[C@H](OC(=O)C=C(C)C)[C@@H]24 (stereo partly specified)
inactive: dose: 0.25 mg/kg/injection, vehicle: saline + alcohol 108 % of control | dose: 0.5 mg/kg/injection, vehicle: saline + alcohol 108 % of control | dose: 1.0 mg/kg/injection, vehicle: saline + alcohol 108 % of control | dose: 2.0 mg/kg/injection, vehicle: saline + alcohol 105 % of control | dose: 4.0 mg/kg/injection, vehicle: saline + alcohol 113 % of control | dose: 8.0 mg/kg/injection, vehicle: saline + alcohol 103 % of control

CNCCC=C1c2ccccc2CCc2ccccc21
inactive: dose: 6.25 mg/kg/injection, vehicle: saline 102 % of control | dose: 12.5 mg/kg/injection, vehicle: saline 97 % of control | dose: 25.0 mg/kg/injection, vehicle: saline 102 % of control

O=[N+]([O-])/C=C/c1ccc2ccccc2c1
inactive: dose: 50.0 mg/kg/injection, vehicle: Klucel (hydroxypropylcellulose) (HPC) 95 % of control | [1] 107 % of control

CN(C)[C@@H]1C(=O)C(C(=O)NCN(CCCl)CCCl)=C(O)[C@@]2(O)C(=O)C3=C(O)c4c(O)cccc4[C@@](C)(O)[C@H]3C[C@@H]12
inactive: dose: 3.13 mg/kg/injection, vehicle: Klucel (hydroxypropylcellulose) (HPC) 98 % of control | dose: 6.25 mg/kg/injection, vehicle: Klucel (hydroxypropylcellulose) (HPC) 113 % of control | dose: 25.0 mg/kg/injection, vehicle: Klucel (hydroxypropylcellulose) (HPC) 97 % of control
